# Data taken from patent US20170326125A1, “MULTISUBSTITUTED AROMATIC COMPOUNDS AS INHIBITORS OF THROMBIN” (VERSEON CORPORATION, priority 2016, published 2017).
# Target: T1, Human thrombin (Homo sapiens, UniProt P00734)
# T1 construct: purchased Haematologic Technologies Inc
# Assay: Inhibition of the protease activity of thrombin (chromogenic substrate S-2238)
# Type: biochemical
# Details: inhibition of the protease activity of thrombin
row,SMILES,IC50 [µM]
1,"O=C(c1ccco1)n1nc(-c2ccncc2)nc1NCc1ccc(F)cc1 [Cmpd 211, N-[(4-fluorophenyl)methyl]-1-[(furan-2-yl)carbonyl]-3-(pyridin-4-yl)-1H-1,2,4-triazol-5-amine]",< 0.1
2,"O=C(c1ccoc1)n1nc(-c2cccnc2)nc1NCc1ccc(F)cc1 [Cmpd 213, N-[(4-fluorophenyl)methyl]-1-[(furan-3-yl)carbonyl]-3-(pyridin-3-yl)-1H-1,2,4-triazol-5-amine]",< 0.1
3,"O=C(c1ccoc1)n1nc(-c2ccncc2)nc1NCc1ccc(F)cc1 [Cmpd 214, N-[(4-fluorophenyl)methyl]-1-[(furan-3-yl)carbonyl]-3-(pyridin-4-yl)-1H-1,2,4-triazol-5-amine]",< 0.1
4,"O=C(N1CCCCC1)n1nc(-c2cccnc2)nc1NCc1ccc(F)cc1 [Cmpd 215, N-[(4-fluorophenyl)methyl]-1-[(piperidin-1-yl)carbonyl]-3-(pyridin-3-yl)-1H-1,2,4-triazol-5-amine]",> 1
5,"CCCn1nc(-c2ccccn2)nc1NCc1ccc(F)cc1 [Cmpd 216, N-[(4-fluorophenyl)methyl]-1-propyl-3-(pyridin-2-yl)-1H-1,2,4-triazol-5-amine]",> 1
6,"CCCn1nc(NCc2ccc(F)cc2)nc1-c1ccccn1 [Cmpd 217, N-[(4-fluorophenyl)methyl]-1-propyl-5-(pyridin-2-yl)-1H-1,2,4-triazol-3-amine]",> 1
7,"Cc1c(-c2ccccc2)n[nH]c1N(Cc1ccc(F)cc1)C(=O)C(C)(C)C [Cmpd 218, N-[(4-fluorophenyl)methyl]-2,2-dimethyl-N-(4-methyl-3-phenyl-1H-pyrazol-5-yl)propanamide]",> 1
8,"O=C(c1ccsc1)n1nc(-c2cccnc2)nc1NCc1ccc(F)cc1 [Cmpd 220, N-[(4-fluorophenyl)methyl]-3-(pyridin-3-yl)-1-[(thiophen-3-yl)carbonyl]-1H-1,2,4-triazol-5-amine]",< 0.1
9,"O=C(c1cccs1)n1nc(-c2ccncc2)nc1NCc1ccc(F)cc1 [Cmpd 221, N-[(4-fluorophenyl)methyl]-3-(pyridin-4-yl)-1-[(thiophen-2-yl)carbonyl]-1H-1,2,4-triazol-5-amine]",0.1 to 1
10,"O=C(c1cn(-c2ccccn2)nc1NCc1ccc(F)cc1)N1CCCCC1 [Cmpd 225, N-[(4-fluorophenyl)methyl]-4-[(piperidin-1-yl)carbonyl]-1-(pyridin-2-yl)-1H-pyrazol-3-amine]",> 1
11,"COc1ccc(CNc2nc(-c3ccccn3)nn2C(=O)c2cccs2)cc1 [Cmpd 226, N-[(4-methoxyphenyl)methyl]-3-(pyridin-2-yl)-1-[(thiophen-2-yl)carbonyl]-1H-1,2,4-triazol-5-amine]",> 1
12,"COc1ccc(CNc2nc(-c3ccccn3)nn2C(=O)c2ccsc2)cc1 [Cmpd 227, N-[(4-methoxyphenyl)methyl]-3-(pyridin-2-yl)-1-[(thiophen-3-yl)carbonyl]-1H-1,2,4-triazol-5-amine]",0.1 to 1
13,"COc1ccc(CNc2nc(-c3cccnc3)nn2C(=O)c2ccsc2)cc1 [Cmpd 228, N-[(4-methoxyphenyl)methyl]-3-(pyridin-3-yl)-1-[(thiophen-3-yl)carbonyl]-1H-1,2,4-triazol-5-amine]",> 1
14,"COc1ccc(CNc2nc(-c3ccncc3)nn2C(=O)c2cccs2)cc1 [Cmpd 229, N-[(4-methoxyphenyl)methyl]-3-(pyridin-4-yl)-1-[(thiophen-2-yl)carbonyl]-1H-1,2,4-triazol-5-amine]",> 1
15,"COc1ccc(CNc2nc(-c3ccncc3)nn2C(=O)c2ccsc2)cc1 [Cmpd 230, N-[(4-methoxyphenyl)methyl]-3-(pyridin-4-yl)-1-[(thiophen-3-yl)carbonyl]-1H-1,2,4-triazol-5-amine]",0.1 to 1
16,"O=C(c1cccc2c1OC(F)(F)O2)n1nc(-c2ccccn2)nc1NCc1ccccc1 [Cmpd 231, N-benzyl-1-[(2,2-difluoro-2H-1,3-benzodioxol-4-yl)carbonyl]-3-(pyridin-2-yl)-1H-1,2,4-triazol-5-amine]",> 1
17,"O=C(c1cccc2c1OCCO2)n1nc(-c2ccccn2)nc1NCc1ccccc1 [Cmpd 232, N-benzyl-1-[(2,3-dihydro-1,4-benzodioxin-5-yl)carbonyl]-3-(pyridin-2-yl)-1H-1,2,4-triazol-5-amine]",< 0.1
18,"O=C(c1c(Cl)cccc1Cl)n1nc(-c2ccccn2)nc1NCc1ccccc1 [Cmpd 238, N-benzyl-1-[(2,6-dichlorophenyl)carbonyl]-3-(pyridin-2-yl)-1H-1,2,4-triazol-5-amine]",> 1

# The next lines start with the values.
row,IC50 [µM],SMILES
1,> 1,"O=C(Nc1ccccc1Cl)n1nc(-c2cccnc2)nc1NCc1ccc(F)cc1 [Cmpd 200, N-(2-chlorophenyl)-5-[(4-fluorophenyl)methyl]amino-3-(pyridin-3-yl)-1H-1,2,4-triazole-1-carboxamide]"
2,0.1 to 1,"COc1ccccc1C(=O)n1nc(-c2ccccn2)cc1NCc1ccco1 [Cmpd 201, N-(furan-2-ylmethyl)-1-[(2-methoxyphenyl)carbonyl]-3-(pyridin-2-yl)-1H-pyrazol-5-amine]"
3,0.1 to 1,"COc1ccccc1C(=O)n1nc(-c2ccccn2)cc1NCc1ccoc1 [Cmpd 202, N-(furan-3-ylmethyl)-1-[(2-methoxyphenyl)carbonyl]-3-(pyridin-2-yl)-1H-pyrazol-5-amine]"
4,> 1,"Fc1ccc(CNc2nc(-c3ccccn3)nn2CCc2ccccc2)cc1 [Cmpd 203, N-[(4-fluorophenyl)methyl]-1-(2-phenylethyl)-3-(pyridin-2-yl)-1H-1,2,4-triazol-5-amine]"
5,> 1,"Fc1ccc(CNc2nc(-c3ccccn3)n(CCc3ccccc3)n2)cc1 [Cmpd 204, N-[(4-fluorophenyl)methyl]-1-(2-phenylethyl)-5-(pyridin-2-yl)-1H-1,2,4-triazol-3-amine]"
6,0.1 to 1,"COc1cc(C)ccc1C(=O)n1nc(-c2ccccc2)nc1NCc1ccc(F)cc1 [Cmpd 205, N-[(4-fluorophenyl)methyl]-1-[(2-methoxy-4-methylphenyl)carbonyl]-3-phenyl-1H-1,2,4-triazol-5-amine]"
7,< 0.1,"COc1ccccc1C(=O)n1nc(-c2ccncc2)nc1NCc1ccc(F)cc1 [Cmpd 207, N-[(4-fluorophenyl)methyl]-1-[(2-methoxyphenyl)carbonyl]-3-(pyridin-4-yl)-1H-1,2,4-triazol-5-amine]"
8,> 1,"COc1ccccc1C(=O)n1nc(-c2ccccc2)cc1NCc1ccc(F)cc1 [Cmpd 208, N-[(4-fluorophenyl)methyl]-1-[(2-methoxyphenyl)carbonyl]-3-phenyl-1H-pyrazol-5-amine]"
9,0.1 to 1,"Cc1ccccc1C(=O)n1nc(-c2ccccc2)nc1NCc1ccc(F)cc1 [Cmpd 209, N-[(4-fluorophenyl)methyl]-1-[(2-methylphenyl)carbonyl]-3-phenyl-1H-1,2,4-triazol-5-amine]"
10,< 0.1,"O=C(c1ccco1)n1nc(-c2ccccn2)nc1NCc1ccc(F)cc1 [Cmpd 210, N-[(4-fluorophenyl)methyl]-1-[(furan-2-yl)carbonyl]-3-(pyridin-2-yl)-1H-1,2,4-triazol-5-amine]"
11,< 0.1,"O=C(c1ccoc1)n1nc(-c2ccccn2)nc1NCc1ccc(F)cc1 [Cmpd 212, N-[(4-fluorophenyl)methyl]-1-[(furan-3-yl)carbonyl]-3-(pyridin-2-yl)-1H-1,2,4-triazol-5-amine]"
12,< 0.1,"O=C(c1ccsc1)n1nc(-c2ccccn2)nc1NCc1ccc(F)cc1 [Cmpd 219, N-[(4-fluorophenyl)methyl]-3-(pyridin-2-yl)-1-[(thiophen-3-yl)carbonyl]-1H-1,2,4-triazol-5-amine]"
13,< 0.1,"O=C(c1ccsc1)n1nc(-c2ccccc2)nc1NCc1ccc(F)cc1 [Cmpd 222, N-[(4-fluorophenyl)methyl]-3-phenyl-1-[(thiophen-3-yl)carbonyl]-1H-1,2,4-triazol-5-amine]"
14,< 0.1,"COc1cccc(C(=O)n2nc(-c3ccccn3)nc2NCc2ccccc2)c1OC [Cmpd 233, N-benzyl-1-[(2,3-dimethoxyphenyl)carbonyl]-3-(pyridin-2-yl)-1H-1,2,4-triazol-5-amine]"
15,> 1,"COc1ccc(C(=O)n2nc(-c3ccccc3F)cc2NCc2ccccc2)c(OC)c1 [Cmpd 234, N-benzyl-1-[(2,4-dimethoxyphenyl)carbonyl]-3-(2-fluorophenyl)-1H-pyrazol-5-amine]"
16,< 0.1,"COc1ccc(C(=O)n2nc(-c3ccccn3)nc2NCc2ccccc2)c(OC)c1 [Cmpd 235, N-benzyl-1-[(2,4-dimethoxyphenyl)carbonyl]-3-(pyridin-2-yl)-1H-1,2,4-triazol-5-amine]"
17,0.1 to 1,"COc1ccc(C(=O)n2nc(-c3ccccn3)cc2NCc2ccccc2)c(OC)c1 [Cmpd 236, N-benzyl-1-[(2,4-dimethoxyphenyl)carbonyl]-3-(pyridin-2-yl)-1H-pyrazol-5-amine]"
18,0.1 to 1,"Cc1ccc(C(=O)n2nc(-c3ccccn3)nc2NCc2ccccc2)c(C)c1 [Cmpd 237, N-benzyl-1-[(2,4-dimethylphenyl)carbonyl]-3-(pyridin-2-yl)-1H-1,2,4-triazol-5-amine]"
19,0.1 to 1,"O=C(c1c(F)cccc1F)n1nc(-c2ccccn2)nc1NCc1ccccc1 [Cmpd 239, N-benzyl-1-[(2,6-difluorophenyl)carbonyl]-3-(pyridin-2-yl)-1H-1,2,4-triazol-5-amine]"
20,< 0.1,"O=C(c1ccccc1Br)n1nc(-c2ccccn2)nc1NCc1ccccc1 [Cmpd 240, N-benzyl-1-[(2-bromophenyl)carbonyl]-3-(pyridin-2-yl)-1H-1,2,4-triazol-5-amine]"

# Same assay, conditions: inhibition of the protease activity of thrombin; class symbols a/b/c
row,IC50 [µM],SMILES
1,> 1,"COC(=O)c1n[nH]c(NC(=O)c2ccc(C)cc2)n1 [Cmpd 196, methyl 5-[(4-methylbenzene)amido]-1H-1,2,4-triazole-3-carboxylate]"
2,> 1,"COc1ccccc1C(=O)n1nc(-c2ccccn2)nc1NCc1cc2ccccc2s1 [Cmpd 198, N-(1-benzothiophen-2-ylmethyl)-1-[(2-methoxyphenyl)carbonyl]-3-(pyridin-2-yl)-1H-1,2,4-triazol-5-amine]"
3,> 1,"COc1ccccc1C(=O)n1nc(-c2ccccn2)nc1NCc1csc2ccccc12 [Cmpd 199, N-(1-benzothiophen-3-ylmethyl)-1-[(2-methoxyphenyl)carbonyl]-3-(pyridin-2-yl)-1H-1,2,4-triazol-5-amine]"
